Patent US12577206B2 (BRISTOL-MYERS SQUIBB COMPANY, priority 2020, dated 2026)

How the values were obtained:
[1] = biological target: T1, human FPR2 (Homo sapiens, UniProt P25090); experiment: FPR2 cyclic adenosine monophosphate (cAMP) assay; format: cell-based; settings: CHO cells overexpressing human FPR2; forskolin 5 μM; inhibition of cAMP production; HTRF; read-out: hFPR2 cAMP2 EC50
T1 sequence (P25090 1-351): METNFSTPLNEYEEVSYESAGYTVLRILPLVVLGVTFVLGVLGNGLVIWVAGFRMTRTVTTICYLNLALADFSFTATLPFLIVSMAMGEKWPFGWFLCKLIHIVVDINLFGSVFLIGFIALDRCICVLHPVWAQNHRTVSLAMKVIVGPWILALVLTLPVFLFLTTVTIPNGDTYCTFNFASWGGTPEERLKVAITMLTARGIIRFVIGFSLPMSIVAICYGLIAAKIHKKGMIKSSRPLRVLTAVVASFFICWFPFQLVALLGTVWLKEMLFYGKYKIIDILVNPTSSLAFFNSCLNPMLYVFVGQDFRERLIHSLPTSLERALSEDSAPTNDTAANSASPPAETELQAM
Source text: (§1) N-formyl peptide receptors (FPRs) are a family of chemo attractant receptors that facilitate leukocyte response during inflammation. FPRs belong to the seven-transmembrane G protein-coupled receptor superfamily and are linked to inhibitory G-proteins (Gi). Three family members (FPR1, FPR2 and FPR3) have been identified in humans and are predominantly found in myeloid cells with varied distribution and have also been reported in multiple organs and tissues. After agonist binding, the FPRs activate a multitude of physiological pathways, such as intra cellular signaling transduction, Ca^2+ mobilization and transcription. The family interacts with a diverse set of ligands that includes proteins, polypeptides and fatty acid metabolites which activate both pro-inflammatory and pro-resolution downstream responses. FPR2 and FPR1 Cyclic Adenosine Monophosphate (cAMP) Assays were used to measure the in vitro activity of the compounds disclosed in this application.
(§2) FPR2 and FPR1 Cyclic Adenosine Monophosphate (cAMP) Assays. A mixture of forskolin (5 μM final for FPR2 or 10 μM final for FPR1) and IBMX (200 μM final) were added to 384-well Proxiplates (Perkin-Elmer) pre-dotted with test compounds in DMSO (1% final) at final concentrations in the range of 0.020 nM to 100 μM. Chinese Hamster Ovary cells (CHO) overexpressing human FPR1 or human FPR2 receptors were cultured in F-12 (Ham's) medium supplemented with 10% qualified FBS, 250 μg/mL zeocin and 300 μg/mL hygromycin (Life Technologies). Reactions were initiated by adding 2,000 human FPR2 cells per well or 4,000 human FPR1 cells per well in Dulbecco's PBS (with calcium and magnesium) (Life Technologies) supplemented with 0.1% BSA (Perkin-Elmer). The reaction mixtures were incubated for 30 min at rt. The level of intracellular cAMP was determined using the HTRF HiRange cAMP assay reagent kit (Cisbio) according to manufacturer's instruction. Solutions of cryptate conjugated anti-cAMP and d2 flurorophore-labeled cAMP were made in a supplied lysis buffer separately. Upon completion of the reaction, the cells were lysed with equal volume of the d2-cAMP solution and anti-cAMP solution. […] The potency and activity of a compound to inhibit cAMP production was then determined by fitting to a 4-parametric logistic equation from a plot of cAMP level versus compound concentrations.

[2] = biological target: T2, human FPR1 (Homo sapiens, UniProt P21462); experiment: FPR1 cyclic adenosine monophosphate (cAMP) assay; format: cell-based; settings: CHO cells overexpressing human FPR1; forskolin 10 μM; inhibition of cAMP production; HTRF; read-out: hFPR1 cAMP2 EC50
T2 sequence (P21462 1-350): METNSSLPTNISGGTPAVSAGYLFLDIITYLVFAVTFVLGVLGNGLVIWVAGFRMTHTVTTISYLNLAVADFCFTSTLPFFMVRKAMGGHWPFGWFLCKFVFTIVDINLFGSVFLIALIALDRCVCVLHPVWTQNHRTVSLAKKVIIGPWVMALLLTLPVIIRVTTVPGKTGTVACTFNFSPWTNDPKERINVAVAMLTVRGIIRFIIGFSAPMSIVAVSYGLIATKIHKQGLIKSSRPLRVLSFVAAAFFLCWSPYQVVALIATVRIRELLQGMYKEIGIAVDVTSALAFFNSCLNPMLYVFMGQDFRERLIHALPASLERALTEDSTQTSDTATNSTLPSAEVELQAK
Source text: as §1, §2

| EC50 [1] | EC50 [2] | Structure (SMILES) |
| --- | --- | --- |
| 8 nM | 1300 nM | COc1cc(F)c(-c2c(NC(=O)c3ccc(OC(F)(F)F)cc3)c(=O)n(-c3ccccc3)n2C)c(F)c1 [Example 4, N-[5-(2,6-difluoro-4-methoxyphenyl)-1-methyl-3-oxo-2-phenyl-2,3-dihydro-1H-pyrazol-4-yl]-4-(trifluoromethoxy)benzamide] |
| 10 nM | 2900 nM | COc1cc(F)c(-c2c(NC(=O)c3ccc(C(F)(F)F)cc3)c(=O)n(-c3ccccc3)n2C)c(F)c1 [Example 5, N-[5-(2,6-difluoro-4-methoxyphenyl)-1-methyl-3-oxo-2-phenyl-2,3-dihydro-1H-pyrazol-4-yl]-4-(trifluoromethyl)benzamide] |
| 10 nM | 300 nM | COc1ccc(-c2c(NC(=O)c3ccc(OC(F)F)cc3)c(=O)n(-c3ccccc3)n2C)cc1 [Example 7, 4-(difluoromethoxy)-N-[5-(4-methoxyphenyl)-1-methyl-3-oxo-2-phenyl-2,3-dihydro-1H-pyrazol-4-yl]benzamide] |
| 11 nM | > 10000 nM | COc1cc(F)c(-c2c(NC(=O)c3ccc(Cl)cc3)c(=O)n(-c3ccccc3)n2C)c(F)c1 [Example 9, 4-chloro-N-[5-(2,6-difluoro-4-methoxyphenyl)-1-methyl-3-oxo-2-phenyl-2,3-dihydro-1H-pyrazol-4-yl]benzamide] |
| 14 nM | 920 nM | COc1cc(F)c(-c2c(NC(=O)c3ccc(OC(F)(F)F)cc3)c(=O)n(-c3ccc(F)cc3)n2C)c(F)c1 [Example 10, N-[5-(2,6-difluoro-4-methoxyphenyl)-2-(4-fluorophenyl)-1-methyl-3-oxo-2,3-dihydro-1H-pyrazol-4-yl]-4-(trifluoromethoxy)benzamide] |
| 17 nM | 1600 nM | COc1cc(F)c(-c2c(NC(=O)c3ccc(OC(F)F)cc3)c(=O)n(-c3ccc(F)cc3)n2C)c(F)c1 [Example 12, N-[5-(2,6-difluoro-4-methoxyphenyl)-2-(4-fluorophenyl)-1-methyl-3-oxo-2,3-dihydro-1H-pyrazol-4-yl]-4-(difluoromethoxy)benzamide] |
| 22 nM | 2400 nM | COc1cc(F)c(-c2c(NC(=O)c3ccc(OC(F)F)cc3)c(=O)n(C3CC3)n2C)c(F)c1 [Example 13, N-[2-cyclopropyl-5-(2,6-difluoro-4-methoxyphenyl)-1-methyl-3-oxo-2,3-dihydro-1H-pyrazol-4-yl]-4-(difluoromethoxy)benzamide] |
| 23 nM | > 10000 nM | COc1cc(F)c(-c2c(NC(=O)c3ccc(OC(F)F)cc3)c(=O)n(-c3cc(F)ccc3C)n2C)c(F)c1 [Example 14, N-[5-(2,6-difluoro-4-methoxyphenyl)-2-(5-fluoro-2-methylphenyl)-1-methyl-3-oxo-2,3-dihydro-1H-pyrazol-4-yl]-4-(difluoromethoxy)benzamide] |
| 30 nM | > 10000 nM | COc1cc(F)c(-c2c(NC(=O)c3ccc(Cl)cc3)c(=O)n(-c3ccc(F)cc3)n2C)c(F)c1 [Example 15, 4-chloro-N-[5-(2,6-difluoro-4-methoxyphenyl)-2-(4-fluorophenyl)-1-methyl-3-oxo-2,3-dihydro-1H-pyrazol-4-yl]benzamide] |
| 30 nM | > 10000 nM | COc1cc(F)c(-c2c(NC(=O)c3ccc(C4CC4)cc3)c(=O)n(-c3ccccc3)n2C)c(F)c1 [Example 16, 4-cyclopropyl-N-[5-(2,6-difluoro-4-methoxyphenyl)-1-methyl-3-oxo-2-phenyl-2,3-dihydro-1H-pyrazol-4-yl]benzamide] |
| 51 nM | 1700 nM | COc1cc(F)c(-c2c(NC(=O)c3ccc(C(F)(F)F)cc3)c(=O)n(-c3ccc(F)cc3)n2C)c(F)c1 [Example 17, N-[5-(2,6-difluoro-4-methoxyphenyl)-2-(4-fluorophenyl)-1-methyl-3-oxo-2,3-dihydro-1H-pyrazol-4-yl]-4-(trifluoromethyl)benzamide] |
| 53 nM | 4100 nM | COc1cc(F)c(-c2c(NC(=O)c3ccc(OC(F)F)cc3)c(=O)n(C(C)C)n2C)c(F)c1 [Example 18, N-[5-(2,6-difluoro-4-methoxyphenyl)-1-methyl-3-oxo-2-(propan-2-yl)-2,3-dihydro-1H-pyrazol-4-yl]-4-(difluoromethoxy)benzamide] |
| 140 nM | > 10000 nM | CCOC(=O)Cn1c(=O)c(NC(=O)c2ccc(OC(F)F)cc2)c(-c2c(F)cc(OC)cc2F)n1C [Example 21, ethyl 2-[3-(2,6-difluoro-4-methoxyphenyl)-4-[4-(difluoromethoxy)benzamido]-2-methyl-5-oxo-2,5-dihydro-1H-pyrazol-1-yl]acetate] |
| 150 nM | 3000 nM | COc1cc(F)c(-c2c(NC(=O)c3ccc(-n4cccn4)cc3)c(=O)n(-c3ccccc3)n2C)c(F)c1 [Example 23, N-[5-(2,6-difluoro-4-methoxyphenyl)-1-methyl-3-oxo-2-phenyl-2,3-dihydro-1H-pyrazol-4-yl]-4-(1H-pyrazol-1-yl)benzamide] |
| 220 nM | > 10000 nM | COc1cc(F)c(-c2c(NC(=O)c3ccc(OC(F)(F)F)cn3)c(=O)n(-c3ccccc3)n2C)c(F)c1 [Example 24, N-[5-(2,6-difluoro-4-methoxyphenyl)-1-methyl-3-oxo-2-phenyl-2,3-dihydro-1H-pyrazol-4-yl]-5-(trifluoromethoxy)pyridine-2-carboxamide] |
| 280 nM | > 10000 nM | COc1cc(F)c(-c2c(NC(=O)c3ccc(Cl)nc3)c(=O)n(-c3ccccc3)n2C)c(F)c1 [Example 25, 6-chloro-N-[5-(2,6-difluoro-4-methoxyphenyl)-1-methyl-3-oxo-2-phenyl-2,3-dihydro-1H-pyrazol-4-yl]pyridin-3-carboxamide] |
| 9 nM | 1100 nM | COc1cc(F)c(-c2c(NC(=O)c3ccc(OC(F)(F)F)cc3)c(=O)n(-c3c(F)cccc3F)n2C)c(F)c1 [Example 26, N-[5-(2,6-difluoro-4-methoxyphenyl)-2-(2,6-difluorophenyl)-1-methyl-3-oxo-2,3-dihydro-1H-pyrazol-4-yl]-4-(trifluoromethoxy)benzamide] |
| 10 nM | > 10000 nM | COc1cc(F)c(-c2c(NC(=O)c3ccc(OC(F)F)cc3)c(=O)n(-c3c(F)cccc3F)n2C)c(F)c1 [Example 27, N-[5-(2,6-difluoro-4-methoxyphenyl)-2-(2,6-difluorophenyl)-1-methyl-3-oxo-2,3-dihydro-1H-pyrazol-4-yl]-4-(difluoromethoxy)benzamide] |
| 10 nM | 2500 nM | COc1cc(F)c(-c2c(NC(=O)c3ccc(OC(F)(F)F)cc3)c(=O)n(-c3ccccc3F)n2C)c(F)c1 [Example 28, N-[5-(2,6-difluoro-4-methoxyphenyl)-2-(2-fluorophenyl)-1-methyl-3-oxo-2,3-dihydro-1H-pyrazol-4-yl]-4-(trifluoromethoxy)benzamide] |
| 18 nM | > 10000 nM | COc1cc(F)c(-c2c(NC(=O)c3ccc(Cl)cc3)c(=O)n(-c3ccccc3F)n2C)c(F)c1 [Example 30, 4-chloro-4-N-[5-(2,6-difluoro-4-methoxyphenyl)-2-(2-fluorophenyl)-1-methyl-3-oxo-2,3-dihydro-1H-pyrazol-4-yl]benzamide] |
| 8 nM | 6500 nM | COc1cc(F)c(-c2c(NC(=O)c3ccc(OC(F)(F)F)cc3)c(=O)n(-c3ncccc3F)n2C)c(F)c1 [Example 32, N-[5-(2,6-difluoro-4-methoxyphenyl)-2-(3-fluoropyridin-2-yl)-1-methyl-3-oxo-2,3-dihydro-1H-pyrazol-4-yl]-4-(trifluoromethoxy)benzamide] |
